From patent publication US20090326259A1, “NF-Kappabeta Activation Inhibitor” (Tokyo University of Marine Science and Technology, priority 2006, published 2009)

System: NF-κB
Assay: LPS-stimulated NF-κB activation in RAW264.7 murine macrophage (gel shift with biotin-labelled NF-κB consensus sequence)
Format: cell-based
Settings: RAW264.7, 1 μM compound 22 h, then 1 μg/ml LPS 2 h; FIG. 2
Experimental: [Measurement of LPS-stimulated NF-κB activation in RAW264.7 murine macrophage strain] The murine macrophage RAW264.7 is preserved in DMEM containing 10% fetal bovine serum. After treatment in DMEM with 1 μM cycloartenyl ferulate (CAF) for 22 h, it is further stimulated for 2 h in 1 μg/ml lipopolysaccharide (LPS).
The nucleoprotein of RAW264.7 cell is extracted with Transfactor Extraction kit (BD Biosciences, USA), and then is bound with the following NF-κB consensus sequence of biotin-labeling reaction for 60 min in reaction solution consisting 100 mM HEPES (pH 7.6), 5 mM EDTA, 50 mM ammonium sulfate, 5 mM DTT, 150 mM KCl, 1% (v/v) Tween20 and 0.0001% poly (dI-dC) (Amersham Biosciences, USA).
Except these experimental groups, control group reacting with 90-fold unlabeled consensus sequence, along with supershift group using anti-p50 polyclonal antibody (Abcam, USA) and anti-p65 polyclonal antibody (Santa Cruz Biotechnology, INC., USA) are established to make comparison. […]
The peroxidase activity is detected with Immobilon Western Chemiluminescent HRP substrate (Millipore, USA) and the luminous intensity is quantified by Image J (National Institutes of Health, USA) as shown in FIG. 2. […]

## COc1cc(/C=C/C(=O)O)ccc1O [ferulic acid]
  NF-κB activation: barely inhibits
